The conditions of data set [1]: cited from earlier work.
For data set [2] the following is noted: pKa falling in interval 8-9.6; cited from earlier work.
For data set [3] the following is noted: smoking a cigarette; cited from earlier work.
For data set [4] the following is noted: at 37° C.; cited from earlier work.

The source of these data is patent US20080286340A1, “Buffered nicotine containing products” (priority 2007, published 2008).

SMILES strings stand for the structures. Like-named read-outs stand apart in the source and are kept apart here.

For the molecule `N[C@@H](CS(=O)(=O)O)C(=O)O` [Cysteic acid], in data set [1] (water), the Solubility in water result is recorded as “Very soluble”. As to `NC(=O)CC[C@H](N)C(=O)O` [Glutamine], the Solubility in water in data set [1] (water) was 42 g/kg. As to `N[C@@H](Cc1c[nH]cn1)C(=O)O` [Histidine], the Solubility in water in data set [1] was 43.5 g/kg. As for `NCCCC[C@H](N)C(=O)O` [Lysine], in data set [2], the “pKa value (in interval 8-9.6)” value is 9.16. For the same molecule, the Solubility in water result in data set [1] is listed as “Very soluble^a)b)”. In the case of `CSCC[C@H](N)C(=O)O` [Methionine], the Solubility in water in data set [1] was 56 g/kg. `CC[C@H](C)[C@H](N)C(=O)O` [Isoleucine]: the Solubility in water in data set [1] (water) is on record as 34.2 g/kg. As for `CC(C)[C@H](N)C(=O)O` [Valine], the Solubility in water in data set [1] (water) is on record as 88.5 g/kg. On to `CC(C)C[C@H](N)C(=O)O` [Leucine], for which, in data set [1] (water), the Solubility in water was 22.0 g/kg.

Consider `NC(=O)C[C@H](N)C(=O)O` [Aspargine], for which the “pKa value (in interval 8-9.6)” value in data set [2] is given as 8.73. In the case of `N[C@@H](CCC(=O)O)C(=O)O` [Glutamic acid], the “pKa value (in interval 8-9.6)” value in data set [2] is 9.58.

`CN1CCCC1c1cccnc1` (centres unmarked) [nicotine, 3-(1-methyl-2-pyrrolidinyl)pyridine]: in data set [3], the “time until nicotine reaches the brain after inhalation” value is on record as “around ten”. In addition, the “nicotine in the non-charged base form” value (assuming a pH of the saliva of 6.8) was “about 10%”. The “nicotine in the free readily absorbable base form” value (at a pH of 9.0) is given as “more than 90%”. Moreover, the “pKa (acid-base equilibrium of nicotine)” value in data set [4] is around 7.8. `N[C@@H](Cc1ccccc1)C(=O)O` [Phenylalanine]: the “pKa value (in interval 8-9.6)” value in data set [2] is on record as 9.09. Also, the Solubility in water in data set [1] (water) is 27.9 g/kg.
